Data set [1] in a line: Metabolic (microsomal) stability assay, human liver microsomes (HLM). It counts as in vitro ADME. The note with it: 1 μM test compound, 37° C. On the procedure:
(§1) Metabolic (Microsomal) Stability Assay: The metabolic degradation of the test compound is assayed at 37° C. with pooled liver microsomes (mouse (MLM), rat (RLM) or human (HLM)). The final incubation volume of 74 μL per time point contains TRIS buffer (pH 7.5; 0.1 M), magnesium chloride (6.5 mM), microsomal protein (0.5 mg/mL for mouse/rat, 1 mg/mL for human specimens) and the test compound at a final concentration of 1 μM. Following a short preincubation period at 37° C., the reactions are initiated by addition of 8 μL beta-nicotinamide adenine dinucleotide phosphate, reduced form (NADPH, 10 mM) and terminated by transfering an aliquot into solvent after different time points. Additionally, the NADPH-independent degradation is monitored in incubations without NADPH, terminated at the last time point by addition of acetonitrile. The quenched incubations are pelleted by centrifugation (1811 g, 5 min). An aliquot of the supernatant is assayed by LC-MS/MS for the amount of parent compound. In vitro intrinsic clearance (CLint, in vitro) is calculated from the time course of the disappearance of the test drug during the microsomal incubation. Each plot is fitted to the first-order elimination rate constant as C(t)=C0*exp(−ke*t), where C(t) and C0 are the concentration of unchanged test drug at incubation time t and that at preincubation and ke is the disappearance rate constant of the unchanged drug. Subsequently, CLint, in vitro (μL min^−1·amount protein) values are converted to CLint, in vitro (mL min^−1·kg^−1) for the whole body. CLint, in vitro data are scaled up using physiological parameters. For better across species comparison the predicted clearance is expressed as percent of the liver blood flow [% QH] in the individual species. In general, high stability (corresponding to low % QH) of the compounds across species is desired.

A short description of data set [2]: Metabolic (microsomal) stability assay, mouse liver microsomes (MLM). It counts as in vitro ADME. Conditions: 1 μM test compound, 37° C. The method, then: as §1
Data set [3] can be described thus: Metabolic (microsomal) stability assay, rat liver microsomes (RLM). It is filed as in vitro ADME. The note with it: 1 μM test compound, 37° C. The method, then: as §1
(In general: Liver microsomes are a subcellular fraction often used to study metabolism.)

Data set [4] has as its target protein-protein interaction between SOS1 and KRAS G12D (Homo sapiens (Human), UniProt Q07889). Briefly: KRAS::SOS1 AlphaScreen Binding Assay. The source says:
KRAS::SOS1 AlphaScreen Binding Assay
Low IC50 values are indicative of high potency of the SOS1 inhibitor compound in this assay setting:
Reagents: • GST-tagged SOS1 (564_1049_GST_TEV_ECO) produced in-house • GST-TEV-SOS1 (564-1049) is purchased from Viva Biotech Ltd. • 6×His-Tev-K-RasG12D(1-169)Avi is purchased from Xtal BioStructures, Inc. (Lot # X129-110) • GDP (Sigma Cat No G7127) • AlphaLISA Glutathione Acceptor Beads (PerkinElmer, Cat No AL109) • AlphaScreen Streptavidin Donor Beads (PerkinElmer Cat No 6760002) • Assay plates: Proxiplate-384 PLUS, white (PerkinElmer, Cat No 6008289)
10 nM (final assay concentration) KRAS G12D, 10 μM (final assay concentration) GDP and 5 nM (final assay concentration) GST-SOS1 are mixed in assay buffer prior to use and kept at room temperature.
AlphaLISA Glutathione Acceptor Beads and AlphaScreen Streptavidin Donor Beads are mixed in assay buffer at a concentration of 10 μg/mL (final assay concentration) each prior to use and kept at room temperature.
Compounds are diluted to a final start concentration of 100 μM and are tested in duplicate. Assay-ready plates (ARPs) are generated using an Access Labcyte Workstation with a Labcyte Echo 550 or 555 accoustic dispenser. For compound a start concentration of 100 μM, 150 nL of compound solution is transferred per well in 11 concentrations in duplicate with serial 1:5 dilutions.
The assay is run using a fully automated robotic system in a darkened room below 100 Lux. 10 μL of KRAS::SOS1 GDP mix is added into columns 1-24 to the 150 nL of compound solution (final dilution in the assay 1:100, final DMSO concentration 1%).
After a 30 minute incubation time 5 μL of bead mix is added into columns 1-23. Plates are kept at room temperature in a darkened incubator. After a further 60 minute incubation, the signal is measured using a PerkinElmer Envision HTS Multilabel Reader using the AlphaScreen specifications from PerkinElmer. Each plate contains the following controls: • diluted DMSO+KRAS::SOS1 GDP mix+bead mix • diluted DMSO+KRAS::SOS1 GDP mix
IC50 values are calculated and analyzed using a 4 parametric logistic model.

Where [5] appears, read: Table 20, KRAS::SOS1 AlphaScreen (SOS1 / KRAS G12D).
Setting [6] is: KRAS G12D::SOS1 AlphaScreen, measured without EDTA unless marked with an asterisk.

Where only a bound is given, the exact number is not on record here.

This is an account of results in patent publication US10829487B2, “Benzylamino substituted pyridopyrimidinones and derivatives as SOS1 inhibitors” (Boehringer Ingelheim International GmbH, priority 2017, dated 2020).

protein-protein interaction between SOS1 and KRAS G12D, sequence (Q07889 564-1049, stated change not applied): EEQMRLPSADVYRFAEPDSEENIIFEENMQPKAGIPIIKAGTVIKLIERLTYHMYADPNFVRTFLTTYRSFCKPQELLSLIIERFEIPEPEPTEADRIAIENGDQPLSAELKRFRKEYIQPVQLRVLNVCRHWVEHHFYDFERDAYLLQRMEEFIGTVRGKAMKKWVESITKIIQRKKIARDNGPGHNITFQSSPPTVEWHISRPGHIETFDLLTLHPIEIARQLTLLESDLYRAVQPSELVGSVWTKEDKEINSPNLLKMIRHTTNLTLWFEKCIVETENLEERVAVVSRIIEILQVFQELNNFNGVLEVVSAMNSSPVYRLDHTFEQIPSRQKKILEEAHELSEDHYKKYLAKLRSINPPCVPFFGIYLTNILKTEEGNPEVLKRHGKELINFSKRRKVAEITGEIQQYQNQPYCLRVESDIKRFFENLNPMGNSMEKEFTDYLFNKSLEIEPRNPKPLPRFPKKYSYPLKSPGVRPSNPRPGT

For `Cc1nc(N[C@H](C)c2cccc(C(F)F)c2F)c2cn(C3(C(F)F)CC3)c(=O)cc2n1` [I-3], the “HLM [% QH]” value in data set [1] is below 24 % QH. Also, the “MLM [% QH]” value in data set [2] stood at 51 % QH. The “RLM [% QH]” value in data set [3] is recorded as below 23 % QH.
As a reminder, the IC50 is the concentration that inhibits the measured activity by half. Lower therefore signals greater potency in that assay. For the molecule `Cc1nc(N[C@H](C)c2cccc(C(F)F)c2F)c2cn(C3(C(F)(F)F)CC3)c(=O)cc2n1` [I-4], in data set [4] (setting [5]), the concentration for half-maximal inhibition (IC50) was determined as 8 nM. Besides, in data set [1], the “HLM [% QH]” value is below 24 % QH. Also, the “MLM [% QH]” value in data set [2] was 46 % QH. Further, the “RLM [% QH]” value in data set [3] is given as below 23 % QH.
The matching figures for `Cc1nc(N[C@H](C)c2cccc(C(F)F)c2F)c2cn([C@H](C)C(F)(F)F)c(=O)cc2n1` [I-10]: 11 nM, below 24 % QH, 41 % QH and 40 % QH.
For `Cc1nc(N[C@H](C)c2cccc(C(F)F)c2F)c2cn(C3CC(F)(F)C3)c(=O)cc2n1` [I-13], in that order: 11 nM, below 24 % QH, below 24 % QH and 52 % QH.
The matching figures for `Cc1nc(N[C@H](C)c2cccc(C(F)F)c2F)c2cn(C3(C)CC(F)(F)C3)c(=O)cc2n1` [I-14]: 21 nM, 27 % QH, 26 % QH and 56 % QH.
Take `Cc1nc(N[C@H](C)c2cccc(C(F)(F)F)c2)c2cn(C(C)C)c(=O)cc2n1` [I-27]: the IC50 in data set [4] (setting [5]) was found to be 38 nM. Also, the “HLM [% QH]” value in data set [1] was below 24 % QH. Also, the “MLM [% QH]” value in data set [2] was found to be 88 % QH. Also, the “RLM [% QH]” value in data set [3] is listed as below 23 % QH.
The matching figures for `Cc1nc(N[C@H](C)c2cccc(C(F)(F)F)c2C)c2cn([C@H]3C[C@](O)(C(F)(F)F)C3)c(=O)cc2n1` [I-47]: 33 nM, 24 % QH, below 24 % QH and 29 % QH.
For the molecule `Cc1nc(N[C@H](C)c2cccc(C(C)(F)F)c2)c2cn(C34CC(F)(C3)C4)c(=O)cc2n1` [I-51], the 50% inhibitory concentration (IC50) in data set [4] (setting [5]) turned out to be 31 nM. Besides, in data set [1], the “HLM [% QH]” value is below 24 % QH. Moreover, the “MLM [% QH]” value in data set [2] is below 24 % QH. The “RLM [% QH]” value in data set [3] is on record as 49 % QH.
Molecule `C[C@@H](Nc1ncnc2cc(=O)n([C@H]3C[C@H](F)C3)cc12)c1cccc(C(F)F)c1F` [I-69] came in with an IC50 in data set [4] (setting [5]) of 6 nM. In data set [1], the “HLM [% QH]” value was below 24 % QH. Also, the “MLM [% QH]” value in data set [2] was below 24 % QH. Further, the “RLM [% QH]” value in data set [3] came to 40 % QH.
For the molecule `C[C@@H](Nc1ncnc2cc(=O)n(C34CC(F)(C3)C4)cc12)c1cccc(C(F)F)c1F` [I-71], in data set [4] (setting [5]), the IC50 was 7 nM. The “HLM [% QH]” value in data set [1] is given as below 24 % QH. Besides, the “MLM [% QH]” value in data set [2] is reported as below 24 % QH. Besides, in data set [3], the “RLM [% QH]” value was below 23 % QH.
As to `Cc1nc(N[C@H](C)c2cccc(C(F)F)c2F)c2cn([C@H]3C[C@@H]3C(F)F)c(=O)c(F)c2n1` [I-83], the half-maximal inhibitory concentration (IC50) in data set [4] (setting [5]) was determined as 15 nM. Moreover, in data set [1], the “HLM [% QH]” value was below 24 % QH. Further, the “MLM [% QH]” value in data set [2] was below 24 % QH. Also, the “RLM [% QH]” value in data set [3] is 42 % QH.
In data set [4] (setting [5]), `Cc1nc(N[C@H](C)c2cccc(C(F)F)c2F)c2cn([C@H]3C[C@H](F)C3)c(=O)c(F)c2n1` [I-84] gave a half-maximal inhibitory concentration (IC50) of 8 nM. In addition, in data set [1], the “HLM [% QH]” value is recorded as below 24 % QH. Besides, the “MLM [% QH]” value in data set [2] is below 24 % QH. Besides, the “RLM [% QH]” value in data set [3] stood at 29 % QH.
In data set [4] (setting [5]), `Cc1nc(N[C@H](C)c2cccc(C(F)F)c2F)c2cn([C@]3(C(F)(F)F)CCOC3)c(=O)c(F)c2n1` [I-85] had an IC50 of 9 nM. For the same molecule, the “HLM [% QH]” value in data set [1] is 24 % QH. For the same molecule, the “MLM [% QH]” value in data set [2] came out at 55 % QH. The “RLM [% QH]” value in data set [3] is below 23 % QH.
`Cc1nc(N[C@H](C)c2cccc(C(C)(F)F)c2F)c2cn(C3(C)CC3)c(=O)c(F)c2n1` [I-86] gave an IC50 in data set [4] (setting [5]) of 6 nM. Moreover, the “HLM [% QH]” value in data set [1] is listed as below 24 % QH. Further, the “MLM [% QH]” value in data set [2] came out at 33 % QH. In addition, in data set [3], the “RLM [% QH]” value was below 23 % QH.
For `Cc1nc(N[C@H](C)c2cccc(C(F)(F)C(C)(C)O)c2F)c2cn(C3(C)CC3)c(=O)c(F)c2n1` [I-88], in that order: 2 nM, 24 % QH, below 24 % QH and below 23 % QH.
The matching figures for `Cc1nc(N[C@H](C)c2cccc(C(F)(F)C(C)(C)O)c2F)c2cn(C34CC(C3)C4)c(=O)c(F)c2n1` [I-90]: 4 nM, below 24 % QH, below 24 % QH and below 23 % QH.
The matching figures for `C[C@@H](Nc1ncnc2c(F)c(=O)n(C3(C(F)F)CC3)cc12)c1cccc(C(F)F)c1F` [I-96]: 7 nM, below 24 % QH, 30 % QH and below 23 % QH.
In data set [4] (setting [6]), `Cc1c(=O)n(C2(C)CC2)cc2c(N[C@H](C)c3cccc(C(F)F)c3F)ncnc12` [I-161] returned an IC50 of 12 nM. In data set [1], the “HLM [% QH]” value turned out to be 31 % QH. In addition, the “MLM [% QH]” value in data set [2] was determined as 44 % QH. The “RLM [% QH]” value in data set [3] is recorded as below 23 % QH.
For `Cc1c(=O)n([C@H]2C[C@@H]2C(F)F)cc2c(N[C@H](C)c3cccc(C(F)F)c3F)ncnc12` [I-165], in that order: 17 nM, below 24 % QH, 54 % QH and below 23 % QH.
For `Cc1c(=O)n(-c2cnn(C)c2)cc2c(N[C@H](C)c3cccc(C(F)F)c3F)ncnc12` [I-172], in that order: 14 nM, below 24 % QH, 53 % QH and below 23 % QH.
